Data: US20230085307A1, “PYRIDAZINONE COMPOUND AND HERBICIDE” (NISSAN CHEMICAL CORPORATION, priority 2019, published 2023)

Experiments:
windgrass = test: Test Example 4: herbicidal effect by soil treatment (Table 19, symbol L); type: in vivo, windgrass (Apera spica-venti); conditions: 320 g/ha
How it was run: (§1)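 Applied as a water-diluted emulsion, the compound was sprayed onto soil covering newly sown seeds. Evaluation came three weeks after application, in a greenhouse held at 25° C. to 30° C.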

Japanese bulrush = test: Test Example 1: herbicidal activity, application before weed generation under submerged conditions (Table 16, symbol B); type: in vivo, Japanese bulrush (Schoenoplectus juncoides); conditions: 320 g/ha applied herbicide
How it was run: (§2)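 Emulsion formulation, water-diluted to set dose, was put onto the flooded surface (4 cm depth, alluvial soil) the same day weeds were sown and 2.5-leaf rice transplanted. After 3 weeks at 25-30 °C under glass, each species was rated 0 (≤5% kill) to 5 (≥90% kill).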

rice flat sedge = test: Test Example 3: herbicidal effect by foliage application, Wagner pot (Table 18, symbol E); type: in vivo, rice flat sedge (Cyperus iria); conditions: 320 g/ha
How it was run: (§3)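 Plants were sown in alluvial soil held under 0.1–0.5 cm standing water and grown 14 days in a greenhouse at 25–30 °C. An emulsifiable formulation, water-diluted to the set dose, was then sprayed onto the foliage, and effects were scored three weeks later using previously defined criteria.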

wild oat [1] = test: Test Example 4: herbicidal effect by soil treatment (Table 19, symbol I); type: in vivo, wild oat (Avena fatua); conditions: 320 g/ha
How it was run: as §1

wild oat [2] = test: Test Example 5: herbicidal effect by foliage application, plastic box (Table 20, symbol I); type: in vivo, wild oat (Avena fatua); conditions: foliage application, 320 g/ha, 3 weeks after application
How it was run: (§4)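 Sow seeds spot-wise in sterilized diluvial soil; cover with ~1.5 cm soil. Grow 14 days in greenhouse, 25° C. to 30° C. Spray foliage with emulsion diluted to predetermined amount. Rate effect after 3 weeks.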

southern crabgrass = test: Test Example 4: herbicidal effect by soil treatment (Table 19, symbol F); type: in vivo, southern crabgrass (Digitaria ciliaris); conditions: 320 g/ha
How it was run: as §1

Italian ryegrass [3] = test: Test Example 5: herbicidal effect by foliage application, plastic box (Table 20, symbol K); type: in vivo, Italian ryegrass (Lolium multiflorum); conditions: foliage application, 320 g/ha, 3 weeks after application
How it was run: as §4

late watergrass [4] = test: Test Example 1: herbicidal activity, application before weed generation under submerged conditions (Table 16, symbol A); type: in vivo, late watergrass (Echinochloa oryzicola); conditions: 320 g/ha applied herbicide
How it was run: as §2

barnyard grass = test: Test Example 5: herbicidal effect by foliage application, plastic box (Table 20, symbol H); type: in vivo, barnyard grass (Echinochloa crus-galli); conditions: foliage application, 320 g/ha, 3 weeks after application
How it was run: as §4

Italian ryegrass [5] = test: Test Example 4: herbicidal effect by soil treatment (Table 19, symbol K); type: in vivo, Italian ryegrass (Lolium multiflorum); conditions: 320 g/ha
How it was run: as §1

late watergrass [6] = test: Test Example 2: herbicidal activity, application during weed generation under submerged conditions (Table 17, symbol A); type: in vivo, late watergrass (Echinochloa oryzicola); conditions: AAH 320 g/ha; application during weed generation, submerged conditions
How it was run: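 In this pot test, flooded alluvial soil (water depth 4 cm) holds all three species sown as a mixture. Once seedlings have one to two leaves, the compound's emulsion, thinned with water to the intended dose, is poured on the water; grading follows after three weeks on the earlier criteria.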

velvetleaf = test: Test Example 5: herbicidal effect by foliage application, plastic box (Table 20, symbol M); type: in vivo, velvetleaf (Abutilon theophrasti); conditions: foliage application, 320 g/ha, 3 weeks after application
How it was run: as §4

green foxtail = test: Test Example 5: herbicidal effect by foliage application, plastic box (Table 20, symbol G); type: in vivo, green foxtail (Setaria viridis); conditions: foliage application, 320 g/ha, 3 weeks after application
How it was run: as §4

lambsquarters = test: Test Example 4: herbicidal effect by soil treatment (Table 19, symbol O); type: in vivo, lambsquarters (Chenopodium album); conditions: 320 g/ha
How it was run: as §1

chickweed = test: Test Example 4: herbicidal effect by soil treatment (Table 19, symbol P); type: in vivo, common chickweed (Stellaria media); conditions: 320 g/ha
How it was run: as §1

Chinese sprangletop = test: Test Example 3: herbicidal effect by foliage application, Wagner pot (Table 18, symbol D); type: in vivo, chinese sprangletop (Leptochloa chinensis); conditions: 320 g/ha
How it was run: as §3

blackgrass = test: Test Example 5: herbicidal effect by foliage application, plastic box (Table 20, symbol J); type: in vivo, blackgrass (Alopecurus myosuroides); conditions: foliage application, 320 g/ha, 3 weeks after application
How it was run: as §4

Structure (SMILES) | herbicidal effect rating, L: windgrass (windgrass) | Herbicidal effect on B: Japanese bulrush (grade 0-5) (Japanese bulrush) | herbicidal effect on E (rice flat sedge), rating 0-5 (rice flat sedge) | herbicidal effect rating, I: wild oat (wild oat [1]) | effect on wild oat (I) (wild oat [2]) | herbicidal effect rating, F: southern crabgrass (southern crabgrass) | effect on Italian ryegrass (K) (Italian ryegrass [3]) | Herbicidal effect on A: late watergrass (grade 0-5) (late watergrass [4]) | effect on barnyard grass (H) (barnyard grass) | herbicidal effect rating, K: Italian ryegrass (Italian ryegrass [5]) | herbicidal effect rating, A: late watergrass (late watergrass [6]) | effect on velvetleaf (M) (velvetleaf) | effect on green foxtail (G) (green foxtail) | herbicidal effect rating, O: lambsquarters (lambsquarters) | herbicidal effect rating, P: chickweed (chickweed) | herbicidal effect on D (Chinese sprangletop), rating 0-5 (Chinese sprangletop) | effect on blackgrass (J) (blackgrass)
Cc1ccc(-c2sc3ccc(F)cc3c2-c2c(O)c(C)nn(C)c2=O)cc1 [2-012] | 0 (Herbicidal rate of 5% or less (almost no effect)) | 0 (Herbicidal rate of 5% or less (almost no effect)) | 5 (Herbicidal rate of 90% or more (almost completely withered)) | 0 (Herbicidal rate of 5% or less (almost no effect)) | 0 (Herbicidal rate of 5% or less (almost no effect)) | 5 (Herbicidal rate of 90% or more (almost completely withered)) | 4 (Herbicidal rate of 70% or more and less than 90%) | 3 (Herbicidal rate of 40% or more and less than 70%) | 4 (Herbicidal rate of 70% or more and less than 90%) | 4 (Herbicidal rate of 70% or more and less than 90%) | 3 (Herbicidal rate of 40% or more and less than 70%) | 5 (Herbicidal rate of 90% or more (almost completely withered)) | 5 (Herbicidal rate of 90% or more (almost completely withered)) | 5 (Herbicidal rate of 90% or more (almost completely withered)) | 4 (Herbicidal rate of 70% or more and less than 90%) | 5 (Herbicidal rate of 90% or more (almost completely withered)) | 4 (Herbicidal rate of 70% or more and less than 90%)
CCCC(=O)Oc1c(C)nn(C)c(=O)c1-c1c(-c2ccc(C)cc2)sc2ccc(F)cc12 [2-013] | 0 (Herbicidal rate of 5% or less (almost no effect)) | 2 (Herbicidal rate of 20% or more and less than 40%) | 5 (Herbicidal rate of 90% or more (almost completely withered)) | 0 (Herbicidal rate of 5% or less (almost no effect)) | 0 (Herbicidal rate of 5% or less (almost no effect)) | 5 (Herbicidal rate of 90% or more (almost completely withered)) | 4 (Herbicidal rate of 70% or more and less than 90%) | 3 (Herbicidal rate of 40% or more and less than 70%) | 5 (Herbicidal rate of 90% or more (almost completely withered)) | 4 (Herbicidal rate of 70% or more and less than 90%) | 4 (Herbicidal rate of 70% or more and less than 90%) | 5 (Herbicidal rate of 90% or more (almost completely withered)) | 5 (Herbicidal rate of 90% or more (almost completely withered)) | 5 (Herbicidal rate of 90% or more (almost completely withered)) | 3 (Herbicidal rate of 40% or more and less than 70%) | 5 (Herbicidal rate of 90% or more (almost completely withered)) | 1 (Herbicidal rate of 5% or more and less than 20%)
COc1ccc(-c2sc3ccc(F)cc3c2-c2c(O)c(C)nn(C)c2=O)cc1 [2-026] | 1 (Herbicidal rate of 5% or more and less than 20%) | 4 (Herbicidal rate of 70% or more and less than 90%) | 5 (Herbicidal rate of 90% or more (almost completely withered)) | 3 (Herbicidal rate of 40% or more and less than 70%) | 5 (Herbicidal rate of 90% or more (almost completely withered)) | 4 (Herbicidal rate of 70% or more and less than 90%) | 4 (Herbicidal rate of 70% or more and less than 90%) | 3 (Herbicidal rate of 40% or more and less than 70%) | 5 (Herbicidal rate of 90% or more (almost completely withered)) | 3 (Herbicidal rate of 40% or more and less than 70%) | 1 (Herbicidal rate of 5% or more and less than 20%) | 5 (Herbicidal rate of 90% or more (almost completely withered)) | 4 (Herbicidal rate of 70% or more and less than 90%) | 5 (Herbicidal rate of 90% or more (almost completely withered)) | 4 (Herbicidal rate of 70% or more and less than 90%) | 4 (Herbicidal rate of 70% or more and less than 90%) | 4 (Herbicidal rate of 70% or more and less than 90%)
